Converted amounts (≈) assume the structure as drawn. “Also recorded” adds a separate entry of the source. Where two headings read alike, the source gives them in different places.
What was measured:
Mucor spp. = assay: Deferasirox susceptibility testing (MIC/MFC), Mucor clinical isolates; format: cell-based
Method: (§1) Minimum inhibitory concentration (MIC) and minimum fungicidal concentration (MFC) were determined for deferasirox by the method of Espinel-Ingroff using R. oryzae spores starved for iron (Espinel-Ingroff, (2001), supra). Cidality was defined as a <4-fold difference between MIC and MFC.
(§2) We next determined the deferasirox susceptibilities of multiple clinical isolates of Mucorales (Table 3). The MIC9OS of deferasirox against Mucor, non-oryzae Rhizopus spp., and R. oryzae were 3.12 to 6.25 μg/ml. MFCs were similar to MICs, and deferasirox was cidal for 28/29 (97%) of isolates. Of note, slight growth was seen within the first twelve hours even at extremely high concentrations of deferasirox. […] Furthermore, the MICs and MFCs of deferasirox against these isolates were well below clinically achievable peak (˜38 μg/ml) and trough serum levels (˜17 μg/ml) of the drug at steady state when administered at the FDA-approved starting dose (20 mg/kg/d).

Mucorales = assay: Deferasirox susceptibilities of multiple clinical isolates of Mucorales (summary); format: cell-based
Method: as §1, §2

rFTR1 = assay: Expression analysis of the high affinity iron permease gene (rFTR1) by RT-PCR; format: cell-based, Rhizopus oryzae; settings: R. oryzae 99-880 mycelia; 2 mM deferasirox plus 350 μM ferric chloride, 1 h at 37° C.
Method: R. oryzae 99-880 plugs taken from a confluent PDA plate were grown in potato dextrose broth overnight at 37° C. with shaking. Mycelia were collected aseptically and transferred to fresh PDB flasks containing 350 μM ferric chloride (to suppress the expression of rFTR1), 350 μM ferric chloride plus 2 mM deferasirox to test iron chelation, or 2 mM deferasirox plus 6 mM ferric chloride to supersaturate the added deferasirox. The flasks were incubated for 1 h at 37° C. with shaking. Mycelia were collected by filtration and ground in liquid nitrogen using mortar and pestle. Total RNA was extracted using RNeasy Plabt Mini™ kit (Qiagen®) with RLC buffer. The RNA was reverse-transcribed with oligo(dT) primer using the SuperScript™ First-Strand Synthesis System (Invitrogen®) to generate first-strand cDNA. The products were diluted and used in PCR to detect the expression of FTR1 of R. oryzae and 18 s rDNA gene. The sequences of the PCR primers are as follows: sense primer 5′-[…] -3′ and anti-sense primer 5′-[…] -3′ for rFTR1 to amplify of R. oryzae; and sense primer 5′-[…]′T′[…] -3′ and anti-sense primer 5′-[…] -3′ for 18 s rDNA gene. The PCR products were separated on a 2% agarose gel containing 0.1 μg/ml ethidium bromide. Both primer sets were designed to amplify a 400 by bands. […]

[1] = steady state; FDA-approved starting dose 20 mg/kg/d; cited from earlier work

O=C(O)c1ccc(-n2nc(-c3ccccc3O)nc2-c2ccccc2O)cc1 [Deferasirox, 4-[3,5-Bis(2-hydroxyphenyl)-1H-1,2,4-triazol-1-yl]-benzoic acid]
Fungicidal? (Mucor spp.; Mucor 97-1083, 24 h): Y (Cidal = MFC/MIC ≦ 4)
Fungicidal? (Mucor spp.; Mucor 97-1083, 48 h): Y (Cidal = MFC/MIC ≦ 4)
Fungicidal? (Mucor spp.; Mucor ramosissumus 97-1192, 24 h): Y (Cidal = MFC/MIC ≦ 4)
MFC (Mucor spp.; Mucor ramosissumus 97-1192, 24 h, read-out: MFC): 0.78 µg/mL (≈ 2.09 µM)
MIC (Mucor spp.; Mucor ramosissumus 97-1192, 24 h, read-out: MIC): 0.78 µg/mL (≈ 2.09 µM)
Fungicidal? (Mucor spp.; Mucor ramosissumus 97-1192, 48 h): Y (Cidal = MFC/MIC ≦ 4)
MFC (Mucor spp.; Mucor ramosissumus 97-1192, 48 h, read-out: MFC): 0.78 µg/mL (≈ 2.09 µM)
MIC (Mucor spp.; Mucor ramosissumus 97-1192, 48 h, read-out: MIC): 0.78 µg/mL (≈ 2.09 µM)
Fungicidal? (Mucor spp.; Mucor sp. 99-932, 24 h): Y (Cidal = MFC/MIC ≦ 4)
Fungicidal? (Mucor spp.; Mucor sp. 99-932, 48 h): Y (Cidal = MFC/MIC ≦ 4)
Fungicidal? (Mucor spp.; Mucor spp. MIC90/MFC90, 24 h): Y (Cidal = MFC/MIC ≦ 4)
MFC90 (Mucor spp.; Mucor spp. MIC90/MFC90, 24 h): 3.12 µg/mL (≈ 8.36 µM)
Fungicidal? (Mucor spp.; Mucor spp. MIC90/MFC90, 48 h): Y (Cidal = MFC/MIC ≦ 4)
MFC90 (Mucor spp.; Mucor spp. MIC90/MFC90, 48 h): 3.12 µg/mL (≈ 8.36 µM)
MIC90 (Mucor spp.; Mucor, 24 h): 3.12 µg/mL (≈ 8.36 µM)
MFC (Mucor spp.; Mucor, 24 h, Mucor 97-1083): 3.12 µg/mL (≈ 8.36 µM)
MIC (Mucor spp.; Mucor, 24 h, Mucor 97-1083): 3.12 µg/mL (≈ 8.36 µM)
MFC (Mucor spp.; Mucor, 24 h, Mucor sp. 99-932): 3.12 µg/mL (≈ 8.36 µM)
MIC (Mucor spp.; Mucor, 24 h, Mucor sp. 99-932): 3.12 µg/mL (≈ 8.36 µM)
MIC90 (Mucor spp.; Mucor, 48 h): 3.12 µg/mL (≈ 8.36 µM)
MFC (Mucor spp.; Mucor, 48 h, Mucor 97-1083): 3.12 µg/mL (≈ 8.36 µM)
MIC (Mucor spp.; Mucor, 48 h, Mucor 97-1083): 3.12 µg/mL (≈ 8.36 µM)
MFC (Mucor spp.; Mucor, 48 h, Mucor sp. 99-932): 3.12 µg/mL (≈ 8.36 µM)
MIC (Mucor spp.; Mucor, 48 h, Mucor sp. 99-932): 3.12 µg/mL (≈ 8.36 µM)
isolates for which deferasirox was cidal (Mucorales; 28/29 isolates): 97%
MIC (Mucorales; Rhizopus arrhizus, read-out: MIC90s against Mucor, non-oryzae Rhizopus spp., and R. oryzae): 3.12 to 6.25 µg/mL (≈ 8.36 to 16.7 µM)
dependence of cidality (Mucorales; slight growth within first twelve hours, fungi dead by 24 hours): time-dependent, rather than concentration-dependent
rFTR1 gene expression (RT-PCR) (rFTR1): expressed; also recorded: induces rFTR1 gene expression
clinically achievable peak serum level [1]: ~38 µg/mL
clinically achievable trough serum level [1]: ~17 µg/mL

Reference: patent publication US20100129434A1, “COMPOSITIONS AND METHODS FOR THE TREATMENT OF MUCORMYCOSIS AND OTHER FUNGAL DISEASES” (priority 2006, published 2010)
